Active and inactive are the calls of the source. No cut-off for these calls is given here.
How the values were obtained:
[1] = Volume of distribution at steady state in Sprague-Dawley rat at 1 mg/kg, iv measured upto 24 hrs by LC-MS/MS analysis; type: ADME, organism-based; conditions: in vivo, read-out: Vdss
[2] = AUC (0 to t) in Sprague-Dawley rat at 1 mg/kg, iv measured upto 24 hrs by LC-MS/MS analysis; type: ADME, organism-based; set-up: time < 24 hrs, dose 1 mg/kg, route iv; conditions: in vivo
[3] = system: Epidermal growth factor receptor (Homo sapiens), P00533 [L858R,T790M]; assay: Inhibition of EGFR L858R/T790M mutant phosphorylation in human NCI-H1975 cells at 1 uM measured after 48 hrs by Western blot assay; type: cell-based
Chain of Epidermal growth factor receptor (Homo sapiens), P00533 [L858R,T790M] (P00533 whole entry T790M/L858R, looked up): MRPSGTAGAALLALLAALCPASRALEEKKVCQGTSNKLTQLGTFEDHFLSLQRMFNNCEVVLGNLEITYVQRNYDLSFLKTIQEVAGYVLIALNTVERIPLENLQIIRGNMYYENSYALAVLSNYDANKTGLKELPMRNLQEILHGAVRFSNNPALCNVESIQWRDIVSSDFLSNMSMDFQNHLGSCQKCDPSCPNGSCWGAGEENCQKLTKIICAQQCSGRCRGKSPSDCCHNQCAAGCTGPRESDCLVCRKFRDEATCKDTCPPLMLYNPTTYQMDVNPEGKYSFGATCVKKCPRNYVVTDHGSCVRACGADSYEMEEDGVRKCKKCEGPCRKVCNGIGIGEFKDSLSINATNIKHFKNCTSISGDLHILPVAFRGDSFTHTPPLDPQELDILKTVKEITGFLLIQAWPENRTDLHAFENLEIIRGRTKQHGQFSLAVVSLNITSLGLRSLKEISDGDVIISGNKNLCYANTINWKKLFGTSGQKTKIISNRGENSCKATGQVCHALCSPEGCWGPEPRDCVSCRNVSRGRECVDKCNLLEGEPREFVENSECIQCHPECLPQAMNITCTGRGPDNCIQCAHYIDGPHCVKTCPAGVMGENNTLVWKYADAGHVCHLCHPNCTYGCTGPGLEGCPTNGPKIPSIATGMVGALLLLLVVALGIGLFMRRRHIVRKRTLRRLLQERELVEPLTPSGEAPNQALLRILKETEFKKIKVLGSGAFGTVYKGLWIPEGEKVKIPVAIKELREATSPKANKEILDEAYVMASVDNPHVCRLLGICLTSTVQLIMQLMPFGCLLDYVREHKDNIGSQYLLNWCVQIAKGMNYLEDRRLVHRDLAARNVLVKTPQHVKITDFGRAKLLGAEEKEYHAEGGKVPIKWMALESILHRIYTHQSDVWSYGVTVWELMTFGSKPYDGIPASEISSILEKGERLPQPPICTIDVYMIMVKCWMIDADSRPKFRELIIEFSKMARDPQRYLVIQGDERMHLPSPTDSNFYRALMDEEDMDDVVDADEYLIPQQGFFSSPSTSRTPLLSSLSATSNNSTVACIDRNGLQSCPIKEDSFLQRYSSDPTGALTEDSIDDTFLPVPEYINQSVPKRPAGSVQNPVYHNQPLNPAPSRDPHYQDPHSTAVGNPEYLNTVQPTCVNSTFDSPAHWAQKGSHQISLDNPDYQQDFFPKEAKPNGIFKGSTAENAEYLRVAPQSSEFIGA

NCI-H1299 [4] = assay: Induction of apoptosis in human NCI-H1299 cells assessed as early apoptotic cells at 0.1 uM incubated for 48 hrs by AnnexinV-FITC/propidium iodide staining based flow cytometry analysis (reference value: 0.11 % ); type: functional
[5] = biological target: Serine/threonine-protein kinase AKT (Homo sapiens) (UniProt P31751+Q9Y243+P31749); assay: Inhibition of Akt phosphorylation in human NCI-H1975 cells preincubated under serum starvation for 8 hrs followed by compound addition measured after 48 hrs by Western blot analysis; type: cell-based; conditions: dose 10-1000 nM, DDE = dose-dependent effect
Chain of Serine/threonine-protein kinase AKT (Homo sapiens) (P31749 whole entry, looked up): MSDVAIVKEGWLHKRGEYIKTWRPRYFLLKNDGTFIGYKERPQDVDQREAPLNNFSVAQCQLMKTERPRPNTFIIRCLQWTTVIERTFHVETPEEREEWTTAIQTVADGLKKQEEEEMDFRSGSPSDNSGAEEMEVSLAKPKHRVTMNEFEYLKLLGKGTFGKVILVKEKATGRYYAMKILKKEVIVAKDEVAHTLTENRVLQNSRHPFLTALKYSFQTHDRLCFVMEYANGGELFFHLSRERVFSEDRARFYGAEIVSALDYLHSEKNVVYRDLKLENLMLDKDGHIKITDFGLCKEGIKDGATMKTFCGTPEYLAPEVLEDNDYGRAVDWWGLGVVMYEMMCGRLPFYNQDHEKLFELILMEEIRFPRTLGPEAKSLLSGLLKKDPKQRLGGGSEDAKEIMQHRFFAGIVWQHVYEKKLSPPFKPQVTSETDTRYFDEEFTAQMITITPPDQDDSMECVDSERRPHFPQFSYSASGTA
Chain of Serine/threonine-protein kinase AKT (Homo sapiens) (P31751 whole entry, looked up): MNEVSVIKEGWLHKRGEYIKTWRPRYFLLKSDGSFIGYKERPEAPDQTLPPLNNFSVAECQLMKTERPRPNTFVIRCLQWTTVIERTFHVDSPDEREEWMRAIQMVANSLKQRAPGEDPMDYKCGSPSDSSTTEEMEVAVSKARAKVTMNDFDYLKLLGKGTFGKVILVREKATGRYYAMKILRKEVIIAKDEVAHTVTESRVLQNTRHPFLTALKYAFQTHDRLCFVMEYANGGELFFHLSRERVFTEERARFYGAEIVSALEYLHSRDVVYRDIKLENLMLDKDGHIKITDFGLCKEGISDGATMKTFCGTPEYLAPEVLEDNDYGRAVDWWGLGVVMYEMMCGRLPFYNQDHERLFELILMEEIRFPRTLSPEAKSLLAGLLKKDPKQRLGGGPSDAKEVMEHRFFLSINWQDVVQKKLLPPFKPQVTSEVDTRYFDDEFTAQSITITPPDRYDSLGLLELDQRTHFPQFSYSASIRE
Chain of Serine/threonine-protein kinase AKT (Homo sapiens) (Q9Y243 whole entry, looked up): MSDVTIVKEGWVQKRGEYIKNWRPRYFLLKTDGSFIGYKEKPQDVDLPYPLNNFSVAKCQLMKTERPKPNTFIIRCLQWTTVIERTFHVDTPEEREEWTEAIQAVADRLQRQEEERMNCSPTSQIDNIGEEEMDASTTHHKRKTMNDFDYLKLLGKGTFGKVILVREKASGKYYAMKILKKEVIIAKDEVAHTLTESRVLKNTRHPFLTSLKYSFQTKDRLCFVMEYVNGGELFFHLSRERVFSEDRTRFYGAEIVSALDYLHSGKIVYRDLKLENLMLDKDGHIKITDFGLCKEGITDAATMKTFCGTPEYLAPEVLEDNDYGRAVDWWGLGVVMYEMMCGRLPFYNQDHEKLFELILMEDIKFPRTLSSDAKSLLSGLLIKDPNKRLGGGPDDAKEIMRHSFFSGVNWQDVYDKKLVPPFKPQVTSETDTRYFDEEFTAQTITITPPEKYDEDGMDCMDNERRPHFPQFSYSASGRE

NCI-H1975 [6] = assay: Induction of apoptosis in human NCI-H1975 cells assessed as early apoptotic cells at 0.1 uM incubated for 48 hrs by AnnexinV-FITC/propidium iodide staining based flow cytometry analysis (reference value: 0.11 % ); type: functional
NCI-H1975 [7] = assay: Induction of apoptosis in human NCI-H1975 cells assessed as late apoptotic cells at 1.0 uM incubated for 48 hrs by AnnexinV-FITC/propidium iodide staining based flow cytometry analysis (reference value: 1.35 % ); type: functional
L02 = assay: Cytotoxicity activity against human L02 cells upto 300 uM incubated for 72 hrs by CCK-8 assay; type: toxicity, cell-based; conditions: l02, 72 h
[8] = Toxicity in BALB/c mouse xenografted with human NCI-H1975 cells assessed as drug tolerability at 10 mg/kg, ip administered once daily for 24 days; type: organism-based; conditions: in vivo, 576 h, time 24 day
[9] = Toxicity in BALB/c mouse xenografted with human NCI-H1299 cells assessed as change in body weight pretreated with compound at 10 mg/kg, ip administered once daily for 24 days and measured every 3 days […]; type: organism-based; conditions: in vivo, 576 h, time 24 day
NCI-H1975 [10] = assay: Induction of apoptosis in human NCI-H1975 cells assessed as late apoptotic cells at 0.1 uM incubated for 48 hrs by AnnexinV-FITC/propidium iodide staining based flow cytometry analysis (reference value: 1.35 % ); type: functional
NCI-H1299 [11] = assay: Induction of apoptosis in human NCI-H1299 cells assessed as necrotic cells at 1.0 uM incubated for 48 hrs by AnnexinV-FITC/propidium iodide staining based flow cytometry analysis (reference value: 0.24 % ); type: functional
[12] = biological target: Protein cereblon/Epidermal growth factor receptor (Homo sapiens) (UniProt P00533+Q96SW2); assay: Protac activity at CRBN/EGFR in human NCI-H1975 cells assessed as induction of EGFR degradation pretreated for 12 hrs followed by compound washout and replaced with fresh medium for 1 hr and measured after 48 hrs post compound washout by Western blot analysis; type: cell-based
Chain of Protein cereblon/Epidermal growth factor receptor (Homo sapiens) (P00533 25-1210 limits assumed): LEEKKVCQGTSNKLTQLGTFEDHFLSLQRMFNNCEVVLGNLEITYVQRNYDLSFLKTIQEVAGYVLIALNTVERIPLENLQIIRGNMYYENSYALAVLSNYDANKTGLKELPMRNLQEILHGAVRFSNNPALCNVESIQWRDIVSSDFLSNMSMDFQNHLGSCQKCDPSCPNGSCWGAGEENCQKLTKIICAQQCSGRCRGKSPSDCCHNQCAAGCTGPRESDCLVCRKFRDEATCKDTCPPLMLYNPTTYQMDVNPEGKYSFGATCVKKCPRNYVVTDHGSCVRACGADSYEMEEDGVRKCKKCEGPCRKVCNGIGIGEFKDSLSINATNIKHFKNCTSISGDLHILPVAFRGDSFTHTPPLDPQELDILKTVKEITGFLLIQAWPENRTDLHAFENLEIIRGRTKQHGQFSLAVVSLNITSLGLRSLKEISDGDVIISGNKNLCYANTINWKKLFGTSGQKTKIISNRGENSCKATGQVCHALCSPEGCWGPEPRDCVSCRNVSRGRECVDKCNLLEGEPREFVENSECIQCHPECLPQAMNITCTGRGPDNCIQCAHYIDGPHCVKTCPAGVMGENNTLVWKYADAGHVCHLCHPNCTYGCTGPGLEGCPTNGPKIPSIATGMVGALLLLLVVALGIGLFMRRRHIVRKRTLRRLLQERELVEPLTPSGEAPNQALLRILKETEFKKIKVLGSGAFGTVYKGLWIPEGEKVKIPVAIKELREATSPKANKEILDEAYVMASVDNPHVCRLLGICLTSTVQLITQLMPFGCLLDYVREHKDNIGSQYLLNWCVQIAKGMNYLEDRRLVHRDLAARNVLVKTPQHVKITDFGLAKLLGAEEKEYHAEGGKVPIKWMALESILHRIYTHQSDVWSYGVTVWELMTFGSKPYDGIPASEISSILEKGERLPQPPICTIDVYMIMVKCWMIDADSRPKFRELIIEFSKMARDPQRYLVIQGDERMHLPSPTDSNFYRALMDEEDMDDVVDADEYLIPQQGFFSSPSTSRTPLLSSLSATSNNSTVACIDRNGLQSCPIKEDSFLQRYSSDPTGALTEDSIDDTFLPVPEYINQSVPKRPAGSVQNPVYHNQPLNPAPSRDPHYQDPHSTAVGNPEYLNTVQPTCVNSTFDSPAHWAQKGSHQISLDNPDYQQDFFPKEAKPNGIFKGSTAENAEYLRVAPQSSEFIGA
Chain of Protein cereblon/Epidermal growth factor receptor (Homo sapiens) (Q96SW2 whole entry partner): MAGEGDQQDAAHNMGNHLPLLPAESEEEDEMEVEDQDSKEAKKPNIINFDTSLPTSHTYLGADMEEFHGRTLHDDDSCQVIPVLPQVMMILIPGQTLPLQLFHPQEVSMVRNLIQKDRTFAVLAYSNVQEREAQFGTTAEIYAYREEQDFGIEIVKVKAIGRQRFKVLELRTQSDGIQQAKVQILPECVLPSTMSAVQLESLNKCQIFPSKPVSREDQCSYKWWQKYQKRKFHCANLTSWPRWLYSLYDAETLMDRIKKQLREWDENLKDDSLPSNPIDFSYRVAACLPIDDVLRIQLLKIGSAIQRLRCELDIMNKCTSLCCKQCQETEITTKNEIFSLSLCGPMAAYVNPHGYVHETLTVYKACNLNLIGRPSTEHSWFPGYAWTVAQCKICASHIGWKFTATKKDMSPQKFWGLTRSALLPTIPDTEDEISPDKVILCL

Structure (SMILES) | Vd [1] [L/kg] | AUC(0-t) at 24 h [2] [ng·h/mL] | inhibition [3] | Activity (NCI-H1299 [4]) [%] | inhibition [5] | Activity (NCI-H1975 [6]) [%] | Activity (NCI-H1975 [7]) [%] | Activity (L02) | Activity [8] | Activity [9] | Activity (NCI-H1975 [10]) [%] | Activity (NCI-H1299 [11]) [%] | Activity [12]
C#CCN(CCCC(=O)Nc1cccc2c1CN(C1CCC(=O)NC1=O)C2=O)CCN(C)c1cc(OC)c(Nc2nccc(-c3cn(C)c4ccccc34)n2)cc1NC(=O)C=C (stereo not given) | 7.87 | 483 | Active | 0.22 | Dde | 0.23 | 25.1 | Non-Toxic | Non-Toxic | Non-Toxic | 4.8 | 0.37 | Active
C#CCN(CCC(=O)Nc1cccc2c1CN(C1CCC(=O)NC1=O)C2=O)CCN(C)c1cc(OC)c(Nc2nccc(-c3cn(C)c4ccccc34)n2)cc1NC(=O)C=C (stereo not given) | 7.38 | 460 | Active | 0.11 | Dde | 1.51 | 24.3 | Non-Toxic | Non-Toxic | Non-Toxic | 6.59 | 0.25 | 

— ChEMBL document CHEMBL5113438, “Discovery of highly potent and selective CRBN-recruiting EGFRL858R/T790M degraders in vivo” (Eur J Med Chem, 2022)
